Tests used:
thymocytes = test: Corticosteroid-induced apoptosis in mouse thymus; type: in vivo
Method: Thymic lymphocytes, or thymocytes, undergo a suicide process known as apoptosis or programmed cell death in response to various stimuli, including ionizing radiation, calcium ionophores, glucocorticoid hormones, and other agents. Apoptosis is also part of the normal physiological process of development and of lymphocyte (and other cell) selection.
Eight male B6D2F1 mice weighing approximately twenty-five grams were given a single injection of either palmitoyldeoxyguanosine (25 mg/kg, i.p.) in a Tween-DMSO vehicle (0.02% Tween and 7.5% DMSO in physiological saline) or vehicle alone. Forty-eight hours later these mice were given an i.p. injection of a long-acting corticosteroid, methylprednisolone acetate (Depo-Medrol; 250 mg/kg). Forty-eight hours following administration of the corticosteroid, all eight of these animals and four additional untreated animals (basals) were sacrificed by cervical dislocation, the thymuses and spleens removed and weighed, and thymic cell number and viability measured by established methods.

male CDF8F1 mice = test: Doxorubicin-induced myelosuppression; type: in vivo, mouse
Method: Doxorubicin (Adriamycin) is a widely-used anticancer agent effective against breast carcinoma, sarcomas, small-cell lung cancer, ovarian cancer, thyroid cancer, Hodgkin's Disease and non-Hodgkins lymphoma. Its clinical application is limited by its cardiac and hematologic toxicities. A study was conducted to assess the effect of N^2 3′,5′-tripalmitoyldeoxyguanosine (PdG) in reducing the hematologic toxicity of doxorubicin. Eighty male CDF8F1 mice were divided into three groups. One group received no treatment and served as basal control animals. Animals in the other two groups were each given a single dose of doxorubicin at a dose of 11 mg/kg by intraperitoneal injection. Beginning 24 hours later, animals in the two groups received three daily doses by intraperitoneal injection of either PdG or vehicle only. Blood samples were obtained by retro-orbital eye bleed just prior to administration of doxorubicin and then 4, 8, 11 and 14 days thereafter. Complete blood cell counts with differential were determined.

IFN-gamma = test: LPS-induced serum interferon-gamma (ELISA); type: in vivo, mouse
Method: (§1) Sixty-three female Balb/C mice were randomly assigned to one of three groups. The animals in one group received a single daily dose of N^2,3′,5′-tripalmitoyldeoxyguanosine (PdG) (25 mg/kg, i.p.), while a second group received a single daily dose of the PdG treatment vehicle (control). The third group was left untreated. On the fourth day 100 μg salmonella typhimurium LPS was administered to all three groups. Serum samples were taken just prior to LPS administration (t=0) and at two, four, six, eight, ten, twelve, sixteen, and twenty hours after LPS administration. The samples were then frozen until the time of assay. Serum levels of TNF-alpha, and IFN-gamma were measured by ELISA.
In the tables below, units for cytokine concentrations are picograms per ml. A value of 0 indicates cytokine levels below the detection limit of the assay (50 to 100 pg/ml).

interleukin-1-alpha = test: LPS-induced elevation of serum interleukin-1-alpha; type: in vivo, mouse; conditions: PdG 25 mg/kg i.p.
Method: as §1
PdG also attenuated LPS-induced elevation of serum interleukin-1-alpha and interleukin-6.

[1] = Day 4 after doxorubicin 11 mg/kg
[2] = Day 8 after doxorubicin 11 mg/kg
[3] = Day 14 after doxorubicin 11 mg/kg

SMILES: CCCCCCCCCCCCCCCC(=O)Nc1nc2c(ncn2[C@H]2C[C@H](OC(=O)CCCCCCCCCCCCCCC)[C@@H](COC(=O)CCCCCCCCCCCCCCC)O2)c(=O)[nH]1 [PdG, 3′,5′-O-N^2-tripalmitoyl-2′-deoxyguanosine]
- Cells/Thymus (thymocytes; 25 mg/kg i.p. 48 h before Depo-Medrol 250 mg/kg, 48 h after): 64 ± 12 ×10^6
- Spleen Wt. (thymocytes; 25 mg/kg i.p. once, 48 h before Depo-Medrol 250 mg/kg, 48 h after corticosteroid): 61 ± 11 mg
- % Viable (thymocytes; thymic cells, 25 mg/kg i.p. 48 h before Depo-Medrol 250 mg/kg, 48 h after): 87 ± 3 %
- Lymphocytes (male CDF8F1 mice; [1]): 8.07 ± 1.21 K/μL
- Neutrophils (male CDF8F1 mice; [1]): 4.35 ± 0.73 K/μL
- WBC (male CDF8F1 mice; Day 4 after doxorubicin 11 mg/kg i.p., PdG 3 daily i.p. doses from 24 h after): 13.2 ± 1.59 K/μL
- Lymphocytes (male CDF8F1 mice; [2]): 1.63 ± 0.13 K/μL
- Neutrophils (male CDF8F1 mice; [2]): 2.47 ± 0.28 K/μL
- WBC (male CDF8F1 mice; [2]): 4.57 ± 0.35 K/μL
- WBC (male CDF8F1 mice; Day 11 after doxorubicin 11 mg/kg): 3.95 ± 0.42 K/μL
- Lymphocytes (male CDF8F1 mice; [3]): 2.0 ± 0.15 K/μL
- Neutrophils (male CDF8F1 mice; [3]): 2.3 ± 0.26 K/μL
- WBC (male CDF8F1 mice; [3]): 5.0 ± 0.39 K/μL
- serum interferon-gamma (IFN-gamma; 0 hr after LPS 100 μg, PdG 25 mg/kg i.p. daily before, 0 = below detection limit): 0 picograms per ml
- serum interferon-gamma (IFN-gamma; 2 hr after LPS, 0 = below detection limit): 0 picograms per ml
- serum interferon-gamma (IFN-gamma; 4 hr after LPS): 825 ± 248 picograms per ml
- serum interferon-gamma (IFN-gamma; 8 hr after LPS): 2129 ± 454 picograms per ml
- serum interferon-gamma (IFN-gamma; 10 hr after LPS): 911 ± 279 picograms per ml
- serum interferon-gamma (IFN-gamma; 12 hr after LPS, 0 = below detection limit): 0 picograms per ml
- serum interferon-gamma (IFN-gamma; 16 hr after LPS, 0 = below detection limit): 0 picograms per ml
- serum interferon-gamma (IFN-gamma; 20 hr after LPS, 0 = below detection limit): 0 picograms per ml
- area under the curve (AUC) over the entire time course (IFN-gamma; PdG 25 mg/kg i.p.): significantly lower
- peak IFN-gamma levels vs control values (IFN-gamma; PdG 25 mg/kg i.p.): five- to seven-fold lower
- LPS-induced elevation of serum interleukin-1-alpha (interleukin-1-alpha): attenuated

From patent publication US7307166B1, “Oxpurine nucleosides and their congeners, and acyl, derivatives thereof, for improvement of hematopoiesis” (Wellstat Therapeutics Corporation, priority 1987, dated 2007)
